Data set [1] deals with isolated guinea pig tracheal strips. The experiment in a line: Relaxation of histamine-contracted isolated guinea pig tracheal strips. Also noted: species or system guinea pig (male Hartley). To be noted: for EC50: Cavia porcellus, % of maximum relaxation by 1 mM papaverine, tested up to 1000 nM, r(log-lin) = 0.9453-0.9968, (S)-salmeterol extrapolated from three data points, read-out: EC50 Tracheal Relaxation, determined by linear regression of percent maximum response.

The test system of data set [2] is isolated guinea pig right atria. The data set can be described thus: Chronotropic effect on isolated guinea pig right atria (atrial rate). Also noted: species or system guinea pig (male Hartley). To be noted: for EC50: Cavia porcellus, % of rate produced by 1 μM forskolin, tested up to 1000 nM, r(log-lin) = 0.9453-0.9968, read-out: EC50 Atrial Rate, determined by linear regression of percent maximum response.

The conditions of data set [3]: as described in the PDR, even by inhalation; cited from earlier work.
Data set [4] deals with human β1 AR (Homo sapiens, UniProt P08588). The data set can be described thus: Competitive binding to human β1-adrenergic receptor ([125I]iodopindolol, Sf9 cell membranes). To be noted: radioligand [125I]iodopindolol; read-out: Kd for radioligand binding to human β1 ARs.
For data set [5], the target named is human β2 AR (Homo sapiens, UniProt P07550). The experiment in a line: Competitive binding to human β2-adrenergic receptor ([125I]iodopindolol, Sf9 cell membranes). Particulars: radioligand [125I]iodopindolol; read-out: Kd for radioligand binding to human β2 ARs.
human β2 AR, sequence (P07550 whole entry): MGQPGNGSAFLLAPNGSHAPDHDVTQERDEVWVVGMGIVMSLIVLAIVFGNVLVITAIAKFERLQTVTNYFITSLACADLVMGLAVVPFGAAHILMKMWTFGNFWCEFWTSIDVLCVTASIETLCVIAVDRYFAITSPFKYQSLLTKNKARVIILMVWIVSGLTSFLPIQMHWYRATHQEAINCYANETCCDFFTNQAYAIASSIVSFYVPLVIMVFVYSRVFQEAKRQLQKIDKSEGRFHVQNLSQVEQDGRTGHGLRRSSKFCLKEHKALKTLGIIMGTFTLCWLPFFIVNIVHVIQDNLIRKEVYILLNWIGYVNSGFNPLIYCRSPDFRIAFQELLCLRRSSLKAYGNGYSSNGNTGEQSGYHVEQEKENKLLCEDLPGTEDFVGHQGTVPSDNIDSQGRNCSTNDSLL

human β1 AR, sequence (P08588 whole entry): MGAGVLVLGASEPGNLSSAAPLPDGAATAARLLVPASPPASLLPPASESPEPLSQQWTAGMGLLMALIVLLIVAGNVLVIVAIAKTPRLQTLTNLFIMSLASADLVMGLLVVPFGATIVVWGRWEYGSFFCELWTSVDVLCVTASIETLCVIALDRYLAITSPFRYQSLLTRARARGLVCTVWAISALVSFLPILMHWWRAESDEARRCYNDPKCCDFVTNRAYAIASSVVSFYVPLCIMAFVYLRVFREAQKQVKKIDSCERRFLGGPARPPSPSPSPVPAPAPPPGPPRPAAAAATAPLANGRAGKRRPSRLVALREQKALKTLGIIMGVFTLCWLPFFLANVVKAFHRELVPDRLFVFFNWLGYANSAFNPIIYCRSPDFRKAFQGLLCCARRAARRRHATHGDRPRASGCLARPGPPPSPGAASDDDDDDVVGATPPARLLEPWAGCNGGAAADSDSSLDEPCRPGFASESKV

As to `CC(C)(C)NCC(O)c1ccc(O)c(CO)c1` (racemic) [(RS)-Albuterol], the EC50 (commonly the concentration needed to bring the measured effect to its halfway point) in data set [1] was 673 nM; in data set [2] it was 272 nM.

For `OCc1cc(C(O)CNCCCCCCOCCCCc2ccccc2)ccc1O` (racemic) [(RS)-Salmeterol, 4-hydroxy-α^1 - [[[6(4-phenylbutoxy)-hexyl]amino]methyl]-1,3-benzenedimethanol], the figures for the EC50 in data set [1] and in data set [2] were 273 nM and 3520 nM, respectively. The adverse effects result in data set [3] is “tachycardia, palpitations, urticaria, angioedema, rash, bronchospasms, headache, tremors, nervousness, and paradoxical bronchospasms”.

For `CC(C)(C)NC[C@H](O)c1ccc(O)c(CO)c1` [(R)-Albuterol], the figures for the 50% effective concentration (EC50) in data set [1] and in data set [2] were 747 nM and 177 nM, respectively. Also, the “potency for tracheal relaxation relative to (S)-salmeterol” value in data set [1] (relative to (S)-salmeterol) was “approximately four”.

For `OCc1cc([C@@H](O)CNCCCCCCOCCCCc2ccccc2)ccc1O` [(R)-Salmeterol], the 50% effective concentration (EC50) in data set [1] is 149 nM; in data set [2], 1730 nM.

`CC(C)(C)NC[C@@H](O)c1ccc(O)c(CO)c1` [(S)-Albuterol]: the 50% effective concentration (EC50) was 100000 nM in data set [1] and over 10000 nM in data set [2].

For the compound `OCc1cc([C@H](O)CNCCCCCCOCCCCc2ccccc2)ccc1O` [(S)-Salmeterol, S enantiomer of 4-hydroxy-α^1 - [[[6(4-phenylbutoxy)-hexyl]amino]methyl]-1,3-benzenedimethanol], in data set [1], the half-maximal effective concentration (EC50) was 3150 nM. For the same compound, the “potency for tracheal relaxation compared with (S,S)-formoterol” value in data set [1] (extrapolated from three data points) is reported as “equivalent in potency”. Besides, in data set [1] (in words), the “efficacy with respect to tracheal relaxation” value was “full efficacy could be achieved” and the “potency for tracheal relaxation compared with racemic formoterol or its (R,R)-enantiomer” value is “significantly less potent”. Further, the “effect on atrial rate compared with vehicle control” value in data set [2] (in words) was “essentially the same effect on atrial rate as the vehicle control”.

Turning to `CC(C)NC[C@H](O)COc1cccc2[nH]cc(I)c12` [[^125 l] iodopindolol], the Kd (usually the equilibrium constant for the complex coming apart) amounted to 2 nM in data set [4] and 0.02 nM in data set [5].

Take `C=C[C@@]1(C)CC(=O)[C@]2(O)[C@@]3(C)[C@@H](O)CCC(C)(C)[C@@H]3[C@H](O)[C@H](OC(C)=O)[C@@]2(C)O1` [forskolin]: the “rate of spontaneous contraction of right atria” value in data set [2] (1 μM forskolin, basal roughly 140-170 bpm) is 195-250 bpm.

With `COc1ccc(Cc2nccc3cc(OC)c(OC)cc23)cc1OC` [papaverine], the “relaxation of histamine-contracted tracheal strips” value in data set [1] (1 mM papaverine) is given as “complete relaxation”.

The values are drawn from patent publication US6254882A, “Methods and compositions for treating pulmonary disorders using optically pure (S)--salmeterol” (Sepracor Inc., priority 1997, dated 2001).
